What was measured:
Assay in all cases: combination Emax (second highest fraction inhibited in the dose matrix, 72 h); higher = more inhibition; extreme values may be limits of the assay
[1] = test system: SUP-B15 (B-Lymphoblastic Leukemia)
Procedure, shortened: (§1)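 Cell lines grown in DMEM/F12 or RPMI with 10% FBS were plated in 1536-well plates and held 24 hours at 37°C, 5% CO2 before 72 hours of exposure to two-drug dose matrices, with DMSO typically at 0.2%. CellTiter-Glo 2.0 luminescence gave viability, which was converted to inhibition. Vehicle wells were set to 0 and blank wells to 1. Combination Emax is the second-highest inhibition in the matrix, and Bliss excess is the observed combination effect minus the expected EA + EB − EA·EB, where EA and EB are the single-agent effects.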

[2] = test system: KMS-12-BM (Plasma Cell Myeloma)
Procedure, shortened: as §1

[3] = test system: KU812 (Chronic Myelogenous Leukemia)
Procedure, shortened: as §1

[4] = test system: DAN-G (Pancreatic Carcinoma)
Procedure, shortened: as §1

[5] = test system: NCCIT (Other Solid Carcinomas)
Procedure, shortened: as §1

[6] = test system: CW-2 (Colorectal Carcinoma)
Procedure, shortened: as §1

[7] = test system: NCI-H661 (Non-Small Cell Lung Carcinoma)
Procedure, shortened: as §1

[8] = test system: RPMI-8226 (Plasma Cell Myeloma)
Procedure, shortened: as §1

[9] = test system: KYSE-270 (Esophageal Squamous Cell Carcinoma)
Procedure, shortened: as §1

[10] = test system: KY821 (Acute Myeloid Leukemia)
Procedure, shortened: as §1

[11] = test system: HCC1419 (Breast Carcinoma)
Procedure, shortened: as §1

[12] = test system: H9 (T-Cell Non-Hodgkin's Lymphoma)
Procedure, shortened: as §1

[13] = test system: ESO51 (Esophageal Adenocarcinoma)
Procedure, shortened: as §1

RD (Rhabdomyosarcoma) = test system: RD (Rhabdomyosarcoma)
Procedure, shortened: as §1

[14] = test system: SU-DHL-5 (B-Cell Non-Hodgkin's Lymphoma)
Procedure, shortened: as §1

[15] = test system: SNU-398 (Hepatocellular Carcinoma)
Procedure, shortened: as §1

[16] = test system: MOG-G-CCM (Low Grade Glioma)
Procedure, shortened: as §1

[17] = test system: KP-3 (Pancreatic Carcinoma)
Procedure, shortened: as §1

[18] = test system: NCI-H3122 (Lung Adenocarcinoma)
Procedure, shortened: as §1

[19] = test system: SK-GT-4 (Esophageal Adenocarcinoma)
Procedure, shortened: as §1

| SMILES | combination Emax [1] | combination Emax [2] | combination Emax [3] | combination Emax [4] | combination Emax [5] | combination Emax [6] | combination Emax [7] | combination Emax [8] | combination Emax [9] | combination Emax [10] | combination Emax [11] | combination Emax [12] | combination Emax [13] | combination Emax (RD (Rhabdomyosarcoma)) | combination Emax [14] | combination Emax [15] | combination Emax [16] | combination Emax [17] | combination Emax [18] | combination Emax [19] |
| --- | --- | --- | --- | --- | --- | --- | --- | --- | --- | --- | --- | --- | --- | --- | --- | --- | --- | --- | --- | --- |
| COc1nnc2ccc(N3CCC(c4ccc(OCCN5CCN(C)C(=O)[C@H]5C)cc4)CC3)nn12 [AZD5153] + Cc1c2c(nn1C)CSCc1cc(n(C)n1)CSc1cc(c3ccccc3c1)OCCCc1c(C(=O)O)n(C)c3c-2c(Cl)ccc13 [AZD5991] (first compound max 1 µM, 7x7, partner max 1 µM) | 1 | 1 | 0.987 | 0.337 | 0.998 | 0.527 | 0.891 | 1 | 0.942 | 1 | 0.567 | 1 | 0.708 | 0.808 | 1 | 1 | 0.652 | 0.275 | 0.691 | 0.53 |
| CCc1c2c(nc3ccc(O)cc13)-c1cc3c(c(=O)n1C2)COC(=O)[C@]3(O)CC [SN-38] + CN(C)CCCOc1ccc(-c2ccc3ncc4c(c3c2)n(C2CCOCC2)c(=O)n4C)cn1 [AZD0156] (first compound max 0.3 µM, 7x7, partner max 1 µM) | 1 | 0.96 | 0.72 | 0.532 | 0.246 | 0.624 | 0.463 | 0.77 | 0.946 | 0.998 | 0.444 | 1 | 0.586 | 0.246 | 1 | 0.231 | 0.429 | 0.0449 | 0.925 | 0.258 |
| CCN(CCO)CCCOc1ccc2c(Nc3cc(CC(=O)Nc4cccc(F)c4)[nH]n3)ncnc2c1 [AZD2811] + O=C(c1cc(Cc2n[nH]c(=O)c3ccccc23)ccc1F)N1CCN(C(=O)C2CC2)CC1 [Olaparib] (first compound max 1 µM, 7x7, partner max 10 µM) | 0.976 | 0.34 | 0.678 | 0.218 | 0.226 | 0.162 | 0.155 | 0.491 | 0.322 | 0.455 | 0.115 | 0.71 | 0.118 | 0.19 | 1 | 0.365 | 0.285 | 0.144 | 0.271 | 0.223 |
| CN(C)CCCOc1ccc(-c2ccc3ncc4c(c3c2)n(C2CCOCC2)c(=O)n4C)cn1 [AZD0156] + C[C@@H]1COCCN1C2=NC(=NC(=C2)C3(CC3)[S@](=N)(=O)C)C4=C5C=CNC5=NC=C4 [AZD6738] (first compound max 1 µM, 7x7, partner max 10 µM) | 0.879 | 1 | 0.735 | 0.696 | 0.656 | 0.543 | 0.486 | 0.994 | 0.914 | 0.966 | 0.159 | 0.972 | 0.773 | 0.252 | 1 | 0.462 | 0.413 | 0.398 | 0.746 | 0.661 |
| COc1nnc2ccc(N3CCC(c4ccc(OCCN5CCN(C)C(=O)[C@H]5C)cc4)CC3)nn12 [AZD5153] + C[C@@H]1COCCN1C2=NC(=NC(=C2)C3(CC3)[S@](=N)(=O)C)C4=C5C=CNC5=NC=C4 [AZD6738] (first compound max 1 µM, 7x7, partner max 10 µM) | 1 | 1 | 0.963 | 0.726 | 0.901 | 0.722 | 0.698 | 0.905 | 0.57 | 1 | 0.295 | 1 | 0.823 | 0.748 | 1 | 0.786 | 0.702 | 0.409 | 0.757 | 0.663 |
| CN(CCO)CC[C@H](CSc1ccccc1)Nc1ccc(S(=O)(=O)NC(=O)c2ccc(N3CCC([C@@H](O)c4ccccc4-c4ccc(Cl)cc4)CC3)cc2)cc1S(=O)(=O)C(F)(F)F [AZD4320] + Cn1cnc2c(F)c(Nc3ccc(Br)cc3Cl)c(C(=O)NOCCO)cc21 [Selumetinib] (first compound max 1 µM, 7x7, partner max 3 µM) | 1 | 1 | 0.966 | 0.413 | 0.224 | 0.216 | 0.264 | 0.965 | 0.389 | 1 | 0.336 | 1 | 0.476 | 0.904 | 0.962 | 0.38 | 0.576 | 0.198 | 0.538 | 0.624 |

— the supplement of paper PMC11061612
